Measurements: ChEMBL document CHEMBL3856221, “Structural modifications of the serotonin 5-HT7 receptor agonist N-(4-cyanophenylmethyl)-4-(2-biphenyl)-1-piperazinehexanamide (LP-211) to improve in vitro microsomal stability: A case study” (Eur J Med Chem, 2016)
pKi: −log10 of the molar value. Active and inactive are the calls of the source. The rule behind the calls is not given here.

Columns and labels:
[1] = Half life in ip dosed mouse; settings: in vivo
[2] = Retention factor, logKw of compound in MeOH/0.01 M phosphate buffer at pH 7.4 by RP-HPLC method; type: physicochemical
[3] = biological target: T1, 5-hydroxytryptamine receptor 1A (Homo sapiens, UniProt P08908); assay: Displacement of [3H]-8-OH-DPAT from human 5-HT1A receptor expressed in HEK293 cell membranes after 1 hr by microbeta counting analysis
T1 sequence (P08908 whole entry): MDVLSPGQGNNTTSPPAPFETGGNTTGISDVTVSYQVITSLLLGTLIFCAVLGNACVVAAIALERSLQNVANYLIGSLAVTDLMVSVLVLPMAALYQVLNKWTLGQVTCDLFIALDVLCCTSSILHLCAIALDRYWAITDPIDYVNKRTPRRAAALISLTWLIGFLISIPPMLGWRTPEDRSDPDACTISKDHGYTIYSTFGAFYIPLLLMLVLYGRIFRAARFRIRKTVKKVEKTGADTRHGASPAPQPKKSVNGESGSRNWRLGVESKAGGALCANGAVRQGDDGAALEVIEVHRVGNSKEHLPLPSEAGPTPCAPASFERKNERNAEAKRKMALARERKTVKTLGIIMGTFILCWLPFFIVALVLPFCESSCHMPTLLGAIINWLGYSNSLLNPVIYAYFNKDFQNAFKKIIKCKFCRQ

[4] = Elimination half life in CD-1 mouse brain at 10 mg/kg, ip administered as single dose by LC/MS analysis; type: ADME, organism-based; settings: read-out: beta t1/2 (converted)
[5] = biological target: 5-hydroxytryptamine receptor 7 (Mus musculus) (UniProt P32304); assay: Agonist activity at 5-HT7 receptor in embryonic day 15 C57BL/6 mouse cortex assessed as increase in neurite length at 20 nM after 30 mins by DAPI staining based microscopy relative to control; type: tissue-based
[6] = Displacement of [3H]-prazosin from adrenergic alpha 1 receptor in pig brain cortical membranes after 50 mins by microbeta counting analysis; type: ADME, cell membranes, Sus scrofa
[7] = biological target: 5-hydroxytryptamine receptor 7 (Mus musculus) (UniProt P32304); assay: Agonist activity at 5-HT7 receptor in embryonic day 15 C57BL/6 mouse cortex assessed as increase in neurite length at 20 nM up to 24 hrs by DAPI staining based microscopy; type: tissue-based
[8] = Cmax in CD-1 mouse plasma at 10 mg/kg, ip administered as single dose after 30 mins by LC/MS analysis; type: ADME, organism-based; design: dose 10 mg/kg, route intraperitoneal
[9] = Elimination half life in CD-1 mouse plasma at 10 mg/kg, ip administered as single dose by LC/MS analysis; type: ADME, organism-based; settings: read-out: beta t1/2 (converted)
[10] = biological target: 5-hydroxytryptamine receptor 7 (Mus musculus) (UniProt P32304); assay: Agonist activity at 5-HT7 receptor in embryonic day 15 C57BL/6 mouse striatum assessed as increase in neurite length at 20 nM up to 4 hrs by DAPI staining based microscopy relative to control
D(2) dopamine receptor [11] = biological target: T2, D(2) dopamine receptor (Homo sapiens, UniProt P14416); assay: Displacement of [3H]raclopride from human dopamine D2L receptor expressed in HEK293 cell membranes after 1 hr by microbeta counting analysis; type: cell-based
[12] = biological target: T3, 5-hydroxytryptamine receptor 6 (Homo sapiens, UniProt P50406); assay: Displacement of [3H]-LSD from human 5-HT6 receptor expressed in HEK293 cell membranes after 1 hr by microbeta counting analysis
[13] = biological target: 5-hydroxytryptamine receptor 7 (Mus musculus) (UniProt P32304); assay: Agonist activity at 5-HT7 receptor in embryonic day 15 C57BL/6 mouse striatum assessed as increase in neurite length at 20 nM after 30 mins by DAPI staining based microscopy relative to control
[14] = Stability in mouse liver microsomes assessed as oxidative metabolism by measuring drug recovery at 10 uM preincubated for 10 mins followed by NADPH addition measured after 30 mins by liquid chromatographic method; type: ADME
[15] = Drug uptake in CD-1 mouse plasma at 10 mg/kg, ip administered as single dose measured up to 4 hrs by LC/MS analysis; type: ADME, organism-based; settings: in vivo
[16] = biological target: 5-hydroxytryptamine receptor 7 (Homo sapiens, UniProt P34969); assay: Displacement of [3H]-5-CT from human 5-HT7b receptor expressed in HEK293 cell membranes after 1 hr by microbeta counting analysis
[17] = Half life in mouse liver microsomes in presence of NADPH by liquid chromatographic method; type: ADME; settings: microsomes
[18] = Cmax in CD-1 mouse brain at 10 mg/kg, ip administered as single dose after 30 mins by LC/MS analysis; type: ADME, organism-based; design: dose 10 mg/kg, route intraperitoneal
[19] = Ratio of drug uptake in CD-1 mouse brain to plasma at 10 mg/kg, ip administered as single dose by LC/MS analysis; type: ADME, organism-based; settings: read-out: BPR
[20] = biological target: T3, 5-hydroxytryptamine receptor 6; assay: Displacement of [3H]-LSD from human 5-HT6 receptor after […] by cell based assay
D(2) dopamine receptor [21] = biological target: T2, D(2) dopamine receptor; assay: Binding affinity to dopamine D2 receptor (unknown origin)

5-hydroxytryptamine receptor 7 (Mus musculus), sequence (P32304 whole entry): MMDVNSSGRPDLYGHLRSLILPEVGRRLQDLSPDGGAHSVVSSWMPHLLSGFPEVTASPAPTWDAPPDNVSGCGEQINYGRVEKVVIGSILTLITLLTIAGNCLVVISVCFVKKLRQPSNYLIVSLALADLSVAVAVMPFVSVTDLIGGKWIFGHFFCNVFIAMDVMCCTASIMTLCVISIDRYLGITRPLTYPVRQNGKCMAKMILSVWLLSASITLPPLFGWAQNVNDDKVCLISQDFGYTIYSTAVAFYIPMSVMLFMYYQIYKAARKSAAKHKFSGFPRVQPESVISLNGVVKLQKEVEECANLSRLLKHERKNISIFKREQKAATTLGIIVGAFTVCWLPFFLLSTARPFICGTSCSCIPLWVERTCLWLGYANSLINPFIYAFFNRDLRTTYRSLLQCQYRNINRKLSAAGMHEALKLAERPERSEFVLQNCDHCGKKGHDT
T3 sequence (P50406 whole entry): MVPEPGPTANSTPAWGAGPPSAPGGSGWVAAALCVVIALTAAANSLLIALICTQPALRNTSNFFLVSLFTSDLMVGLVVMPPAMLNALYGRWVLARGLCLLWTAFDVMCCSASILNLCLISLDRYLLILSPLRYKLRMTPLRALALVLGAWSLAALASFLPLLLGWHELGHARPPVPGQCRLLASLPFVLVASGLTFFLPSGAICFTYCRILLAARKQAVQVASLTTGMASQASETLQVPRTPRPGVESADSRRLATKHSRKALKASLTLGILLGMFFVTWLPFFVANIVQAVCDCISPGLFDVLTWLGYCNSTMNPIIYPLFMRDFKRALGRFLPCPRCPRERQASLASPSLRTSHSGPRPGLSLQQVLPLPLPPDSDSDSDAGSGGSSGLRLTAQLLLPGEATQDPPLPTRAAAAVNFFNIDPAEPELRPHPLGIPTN
T2 sequence (P14416 whole entry): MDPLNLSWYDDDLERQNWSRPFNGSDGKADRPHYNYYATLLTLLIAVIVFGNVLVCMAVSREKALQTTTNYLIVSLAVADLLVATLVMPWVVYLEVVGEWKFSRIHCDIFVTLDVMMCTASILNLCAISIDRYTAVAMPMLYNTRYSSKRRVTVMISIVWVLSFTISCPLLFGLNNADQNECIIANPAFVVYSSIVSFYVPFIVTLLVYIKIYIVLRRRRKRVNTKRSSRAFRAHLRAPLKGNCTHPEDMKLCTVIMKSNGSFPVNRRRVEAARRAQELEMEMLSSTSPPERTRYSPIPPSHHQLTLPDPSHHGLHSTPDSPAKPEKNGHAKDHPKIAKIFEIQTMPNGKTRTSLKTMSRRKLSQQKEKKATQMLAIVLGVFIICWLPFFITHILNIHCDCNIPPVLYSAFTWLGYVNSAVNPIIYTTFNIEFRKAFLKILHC
5-hydroxytryptamine receptor 7, sequence (P34969 whole entry): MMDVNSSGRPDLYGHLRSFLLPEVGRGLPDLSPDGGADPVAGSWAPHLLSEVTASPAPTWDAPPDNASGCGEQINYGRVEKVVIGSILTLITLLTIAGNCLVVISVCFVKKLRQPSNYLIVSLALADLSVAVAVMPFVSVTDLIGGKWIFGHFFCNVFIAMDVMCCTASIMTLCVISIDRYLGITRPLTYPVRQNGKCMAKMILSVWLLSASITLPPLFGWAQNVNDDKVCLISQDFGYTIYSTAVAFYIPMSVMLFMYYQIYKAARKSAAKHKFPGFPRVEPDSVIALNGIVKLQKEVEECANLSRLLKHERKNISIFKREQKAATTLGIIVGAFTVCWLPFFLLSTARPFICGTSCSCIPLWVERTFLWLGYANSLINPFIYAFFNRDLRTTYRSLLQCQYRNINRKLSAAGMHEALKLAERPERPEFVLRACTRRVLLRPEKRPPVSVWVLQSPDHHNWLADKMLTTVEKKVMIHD

O=C1CCc2ccc(OCCCCN3CCN(c4cccc(Cl)c4Cl)CC3)cc2N1 [ARIPIPRAZOLE]
half-life [1]: 4.4 h

COc1ccc(-c2cc(F)ccc2N2CCN(CCCCCC(=O)NCc3ccc(C#N)cc3)CC2)cc1
logKw [2]: 0.52 | pKi [3]: 6.11 | half-life [4]: 1.02 h | Activity [5]: 130% | pKi [6]: 8.18 | Activity [7]: Active | Cmax [8]: 1170 ng/mL | half-life [9]: 1.07 h | Activity [10]: 126% | pKi (D(2) dopamine receptor [11]): 6.28 | pKi [12]: 6.21 | Activity [13]: 124% | Drug recovery ([14]; microsomes, 0.5 h, 10 µM): 27% | Drug uptake [15]: Active | pKi [16]: 7.59 | t1/2 [17]: 0.75 h | Cmax [18]: 515 ng/mL | Kp [19]: 0.5

N#Cc1ccc(CNC(=O)CCCCCN2CCN(c3ccccc3-c3ccccc3)CC2)cc1
logKw [2]: 0.58 | pKi [20]: 5.80 | pKi (D(2) dopamine receptor [21]): 6.62 | remaining at 0.5 h, 10 µM ([14]; liver microsomes, read-out: Drug recovery): 20%
